Experiment: logP determination by HPLC on a reversed-phase column (C 18), EEC Directive 79/831 Annex V.A8
Type: physicochemical
Conditions: method marker [a] (footnote not shown); isomer A / isomer B / isomer mixture as noted in the cell
Procedure: The stated logP values were determined in accordance with EEC Directive 79/831 Annex V.A8 by HPLC (high performance liquid chromatography) on a reversed-phase column (C 18). Temperature: 43° C.

| Structure (SMILES) | logP |
| --- | --- |
| CC(=NOCC(C)CON=C(C)c1cccc(C)n1)c1cccc(C)n1 (stereo not drawn) [Compound 1] | 2.31^[a] |
| CC(=NOCC(C)(O)CON=C(C)c1cccc(C)n1)c1cccc(C)n1 (stereo not drawn) [Compound 12] | 1.66^[a] |
| CC(=NOCCCON=C(C)c1cccc(C)n1)c1cccc(C)n1 [Compound 14] | 2.66^[a] |
| CC(=NOCCCON=C(C)c1ccc(C)c(C)n1)c1ccc(C)c(C)n1 [Compound 72] | 2.23^[a] |
| CC(=NOCCCON=C(C)c1ccc(C)cn1)c1ccc(C)cn1 [Compound 81] | 2.90^[a] |
| CCC(=NOCCCON=C(CC)c1cccc(C)n1)c1cccc(C)n1 [Compound 90] | 4.44^[a] |
| CCCC(=NOCCCON=C(CCC)c1cccc(C)n1)c1cccc(C)n1 [Compound 91] | 5.83^[a] |
| CCCC(=NOCC(C)CON=C(CCC)c1cccc(C)n1)c1cccc(C)n1 (stereo not drawn) [Compound 112] | 6.61^[a] |
| CCC(=NOCC(C)CON=C(CC)c1cccc(C)n1)c1cccc(C)n1 (stereo not drawn) [Compound 116] | 5.40^[a] |
| CC(=NOCC(C)CON=C(C)c1ccc(C)c(C)n1)c1ccc(C)c(C)n1 (stereo not drawn) [Compound 118] | 2.99^[a] |
| CC(=NOCC(C)CON=C(C)c1cc(-c2ccccc2)ccn1)c1cc(-c2ccccc2)ccn1 (stereo not drawn) [Compound 119] | 6.33^[a] |
| CC(=NOCCCON=C(C)c1cccc(Cc2ccccc2)n1)c1cccc(Cc2ccccc2)n1 [Compound 131] | 6.95^[a] |
| CC(=NOCCCON=C(C)c1cccc(CC(C)C)n1)c1cccc(CC(C)C)n1 [Compound 134] | 7.36^[a] |
| CCc1ccnc(C(C)=NOCCCON=C(C)c2cc(CC)ccn2)c1 [Compound 136] | 2.98^[a] |
| CC(=NOCC(C)CON=C(C)c1cccc(C(F)(F)F)n1)c1cccc(C(F)(F)F)n1 (stereo not drawn) [Compound 169] | 6.41^[a] |
| CC(=NOCC(C)CON=C(C)c1cccc(Cc2ccccc2)n1)c1cccc(Cc2ccccc2)n1 (stereo not drawn) [Compound 173] | 7.36^[a] |
| CCCc1cccc(C(C)=NOCCCON=C(C)c2cccc(CCC)n2)n1 [Compound 174] | 6.78^[a] |
| CCCc1cccc(C(C)=NOCC(C)CON=C(C)c2cccc(CCC)n2)n1 (stereo not drawn) [Compound 175] | 7.36^[a] |
| CCc1cccc(C(C)=NOCC(C)CON=C(C)c2cccc(CC)n2)n1 (stereo not drawn) [Compound 179] | 6.21^[a] |
| CCc1cccc(C(C)=NOCCCON=C(C)c2cccc(CC)n2)n1 [Compound 180] | 5.43^[a] |
| CC(=NOCCCON=C(C)c1cc(C)cc(C)n1)c1cc(C)cc(C)n1 [Compound 224] | 1.65^[a] |
| CC(=NOCC(C)CON=C(C)c1cc(C)cc(C)n1)c1cc(C)cc(C)n1 (stereo not drawn) [Compound 225] | 2.11^[a] |
| CC(=NOCC(C)CON=C(C)c1cccc(C(C)C)n1)c1cccc(C(C)C)n1 (stereo not drawn) [Compound 229] | 7.36^[a] |
| CCC(=NOCC(C)CON=C(CC)c1ccc(C)c(C)n1)c1ccc(C)c(C)n1 (stereo not drawn) [Compound 235] | 4.88^[a] |
| C=C(CON=C(CC)c1cccc(C)n1)CON=C(CC)c1cccc(C)n1 [Compound 239] | 5.16^[a] |

Same assay, conditions: method marker [b]; isomer A / isomer B / isomer mixture as noted in the cell

| Structure (SMILES) | logP |
| --- | --- |
| C=C(CON=C(C)c1cccc(C)n1)CON=C(C)c1cccc(C)n1 [Compound 9] | 3.33^[b] |
| Cc1cc(C)nc(/C(N)=N/OCC(C)CO/N=C(\N)c2nc(C)cc(C)n2)n1 (stereo not drawn) [Compound 10] | 1.81^[b] |
| CC(=NOCCCCCON=C(C)c1cccc(C)n1)c1cccc(C)n1 [Compound 11] | 3.85^[b] |
| CC(=NOCC1(CON=C(C)c2cccc(C)n2)CC1)c1cccc(C)n1 [Compound 15] | 3.44^[b] |
| C=C(CON=C(C)c1cccc(C)n1)CON=C(C)c1nc(C)c(C)s1 [Compound 18] | 4.41^[b] |
| C=C(CON=C(C)c1cccc(C)n1)CON=C(N)c1cccc(C)n1 [Compound 23] | 2.75^[b] |
| C=C(CO/N=C(\N)c1csc(C)n1)CO/N=C(\N)c1csc(C)n1 [Compound 27] | 3.19^[b] |
| CC(=NOCCON=C(C)c1cccnc1)c1cccnc1 [Compound 32] | 1.32^[b] |
| C=C(CON=C(C)c1ccc(Cl)nc1)CON=C(C)c1ccc(Cl)nc1 [Compound 57] | 4.38^[b] |
| CC(=NOCON=C(C)c1ccccn1)c1ccccn1 [Compound 59] | 2.23^[b] |
| C=C(CON=C(C)c1ccc(C(F)(F)F)cn1)CON=C(C)c1ccc(C(F)(F)F)cn1 [Compound 61] | 6.18^[b] |
| C=C(CON=C(C)c1cccc(CCC)n1)CON=C(C)c1cccc(CCC)n1 [Compound 62] | 6.89^[b] |
| C=C(CON=C(C)c1ccc(C(F)(F)F)cn1)CON=C(C)c1cccc(C)n1 [Compound 66] | 5.15^[b] |
| C=C(CON=C(C)c1ccc(C)c(C)n1)CON=C(C)c1ccc(C)c(C)n1 [Compound 67] | 2.82^[b] |
| CC(=NOCCCCCCON=C(C)c1cccc(C)n1)c1cccc(C)n1 [Compound 73] | 4.47^[b] |
| CC(=NOCCC(C)CCON=C(C)c1cccc(C)n1)c1cccc(C)n1 (stereo not drawn) [Compound 75] | 4.38^[b] |
| C=C(CON=C(C)c1cccc(C)n1)CON=C(C)c1cccc(C(C)=O)n1 [Compound 117] | 4.43^[b] |
| CC(=NOCCOCCON=C(C)c1cccc(C)n1)c1cccc(C)n1 [Compound 181] | 1.84^[b] |

| Structure (SMILES) | logP |
| --- | --- |
| C=C(CON=C(C)c1cccc(C)n1)CON=C(N)c1nc(C)c2c(n1)CCCC2 [Compound 182] | 2.55^[b] |
| C=C(CON=C(C)c1cccc(C)n1)CON=C(N)c1nc(C)cc(OC)n1 [Compound 186] | 2.11^[b] |
| C=C(CON=C(C)c1cccc(C)n1)CON=C(C)c1nc(C)cc(C)n1 [Compound 188] | 2.69^[b] |
| C=C(CON=C(C)c1cccc(C)n1)CON=C(N)c1cc(C)cc(C)n1 [Compound 189] | 2.92^[b] |
| C=C(CON=C(C)c1cccc(C)n1)CON=C(C)c1ccc2ccccc2n1 [Compound 202] | 5.25^[b] |
| C=C(CON=C(C)c1cccc(C)n1)CON=C(C)c1ccc(C)c(C)n1 [Compound 204] | 3.10^[b] |
| C=C(CON=C(C)c1cccc(C)n1)CON=C(C)c1cccc(Br)n1 [Compound 206] | 4.98^[b] |
| CC(=NOCC(F)CON=C(C)c1cccc(C)n1)c1cccc(C)n1 (stereo not drawn) [Compound 212] | 2.94^[b] |
| CC(=NOCC(C)CON=C(C)c1nc2ccccc2s1)c1nc2ccccc2s1 (stereo not drawn) [Compound 213] | 6.71^[b] |
| C/C(=N\OCCOCOCCO/N=C(\C)c1cccc(C)n1)c1cccc(C)n1 [Compound 216] | 2.02^[b] |
| CC(=NOCCCCCCCON=C(C)c1cccc(C)n1)c1cccc(C)n1 [Compound 217] | 5.37^[b] |
| C=C(CON=C(C)c1cc(C)cc(C)n1)CON=C(C)c1cc(C)cc(C)n1 [Compound 219] | 1.98^[b] |
| C=C(CON=C(C)c1cccc(C)n1)CON=C(N)c1nc(C2CC2)cc(C2CC2)n1 [Compound 243] | 3.09^[b] |
| C=C(CON=C(C)c1cccc(C)n1)CON=C(N)c1nc(C)c(C(C)CC)c(C2CC2)n1 (stereo not drawn) [Compound 244] | 3.99^[b] |
| CC(=NOC(C)CC(C)ON=C(C)c1cccc(C)n1)c1cccc(C)n1 (stereo not drawn) [Compound 248] | 4.10^[b] |
| COc1ccc(C)nc1C(C)=NOCC(C)CON=C(C)c1nc(C)ccc1OC (stereo not drawn) [Compound 251] | 2.04^[b] |
| CCC(=NOCC(C)CON=C(CC)c1nc(C)c(C)c(C)n1)c1nc(C)c(C)c(C)n1 (stereo not drawn) [Compound 254] | 4.38^[b] |

Same assay, conditions: method marker [c] (footnote not shown)

| Structure (SMILES) | logP |
| --- | --- |
| CC(=NOCC(C)CON=C(C)c1cccc(C)n1)c1cccc(C)n1 (stereo not drawn) [Compound 1] | 5.44^[c] |

Same assay, conditions: value marked [a]

| Structure (SMILES) | logP |
| --- | --- |
| CC(=NOCC(C)CON=C(C)c1nc(C)c(C)cc1C)c1nc(C)c(C)cc1C (stereo not drawn) [Compound 255] | 2.19^[a] |
| CCCC(=NOCC(C)CON=C(CCC)c1ccc(C)c(C)n1)c1ccc(C)c(C)n1 (stereo not drawn) [Compound 262] | 6.26^[a] |
| CC(=NOCC(C)(C)CON=C(C)c1cc(C)cc(C)n1)c1cc(C)cc(C)n1 [Compound 276] | 2.54^[a] |
| CCC(=NOCC(C)(C)CON=C(CC)c1cccc(C)n1)c1cccc(C)n1 [Compound 277] | 6.11^[a] |
| CC(=NOCC(C)(C)CON=C(C)c1ccc(C)c(C)n1)c1ccc(C)c(C)n1 [Compound 278] | 3.81^[a] |
| CCCC(=NOCC(C)(C)CON=C(CCC)c1cccc(C)n1)c1cccc(C)n1 [Compound 279] | 7.25^[a] |
| CCC(=NOCC(C)(C)CON=C(CC)c1ccc(C)c(C)n1)c1ccc(C)c(C)n1 [Compound 280] | 5.58^[a] |
| CC(=NOC[Si](C)(C)CON=C(C)c1cccc(C)n1)c1cccc(C)n1 [Compound 292] | 4.50^[a] |
| CC(=NOCC(C)CON=C(C)c1ccc2c(n1)CCC2)c1ccc2c(n1)CCC2 (stereo not drawn) [Compound 300] | 4.14^[a] |

Same assay, conditions: value marked [b]

| Structure (SMILES) | logP |
| --- | --- |
| CC(=NOCC(CON=C(C)c1cccc(C)n1)c1ccccc1)c1cccc(C)n1 (stereo not drawn) [Compound 264] | 4.63^[b] |
| C=C(CON=C(CC)c1cccc(CC)n1)CON=C(CC)c1cccc(CC)n1 [Compound 265] | 7.08^[b] |
| CC(=NOCC(C)CON=C(C)c1nc(C)c(C)c(C)n1)c1nc(C)c(C)c(C)n1 (stereo not drawn) [Compound 266] | 3.41^[b] |
| CC(=NOCC(CON=C(C)c1cccc(C)n1)C(C)(C)C)c1cccc(C)n1 (stereo not drawn) [Compound 269] | 5.51^[b] |
| CCCC(CON=C(C)c1cccc(C)n1)CON=C(C)c1cccc(C)n1 (stereo not drawn) [Compound 270] | 5.14^[b] |
| COc1cc(OC)nc(C(C)=NOCC(C)CON=C(C)c2nc(OC)cc(OC)n2)n1 (stereo not drawn) [Compound 272] | 4.49^[b] |
| C=C(CON=C(C)c1nc(C)ccc1OC)CON=C(C)c1nc(C)ccc1OC [Compound 283] | 2.05^[b] |
| CC(=NOCC1(CON=C(C)c2cccc(C)n2)CCC1)c1cccc(C)n1 [Compound 289] | 4.77^[b] |
| COCc1cccc(C(C)=NOCC(C)CON=C(C)c2cccc(COC)n2)n1 (stereo not drawn) [Compound 290] | 4.92^[b] |
| COC(CON=C(C)c1cccc(C)n1)CON=C(C)c1cccc(C)n1 (stereo not drawn) [Compound 294] | 2.22^[b] |
| CC(=NOCCC(C)ON=C(C)c1cccc(C)n1)c1cccc(C)n1 (stereo not drawn) [Compound 295] | 3.34^[b] |
